{
  "source": "patent US20210009551A1",
  "about": "“COMPOUNDS AND METHODS FOR TREATING FIBROSIS OR CANCER” (THE REGENTS OF THE UNIVERSITY OF CALIFORNIA, priority 2016, published 2021)",
  "key": {"[1]": {"test_system": "LOXL2-high A549 cells", "test": "Corilagin level in conditioned medium by LC-MS, A549", "format": "in vitro ADME", "settings": "1 μM, 5 hrs"}, "[2]": {"test_system": "LOXL2-low HaCaT cells", "test": "Corilagin level in conditioned medium by LC-MS, HaCaT", "format": "in vitro ADME", "settings": "1 μM, 5 hrs"}, "[3]": {"test": "Plasma level of corilagin, LC/MS analysis", "format": "in vivo, mice", "settings": "C57BL/6, mouse, 2 hrs after the last oral dose of 100 mg/kg, day 21, read-out: average circulating level", "procedure": "Plasma level of corilagin—LC/MS analysis. Corilagin in C57BL/6 mice two hours following last oral administration at day 21 was analyzed. Blood samples (˜500 μL/sample) were collected via cardiac puncture. Samples were placed in tubes containing heparin sodium and stored on ice until centrifuged for plasma."}, "[4]": {"test_system": "TGFβ1 signaling (p-smad3) in A549 cells", "test": "TGFβ1-induced p-smad generation in cells (immunoblot)", "format": "cell-based", "settings": "1 μM", "procedure": "(§1) Immunoblot. Pulverized tissue and cells were lysed in RIP A buffer (150 mM NaCl, 50 mM Tris, pH 8.0, 1% Triton X-100, 0.5% sodium deoxycholate, 0.1% SDS, supplemented with protease and phosphatase inhibitors) and analyzed by immunoblotting. Densitometry was quantified using NIH Imaged software."}, "[5]": {"test": "Bronchoalveolar lavage: immune cells and injury markers", "format": "in vivo", "settings": "BALF, bleomycin or saline treated mice", "procedure": "Bronchoalveolar lavage. After the trachea was exposed, a 20-G catheter was inserted into the trachea through a small incision. 1 ml cold PBS was instilled into the mouse lungs followed by gentle aspiration repeated for three times. All the bronchoalveolar lavage fluid (BALF) was centrifuged and cell pellet was re-suspended in erythrocyte (RBC) lysis buffer (Sigma, St. Louis) followed by re-centrifugation. Cell number was counted using hemocytometer. Cell types of BALF were determined by morphology following Diff-quick stain of cytospin slides. About 500 cells were counted for each sample in order to determine the cell types. Macrophages account for more than 80% of the cells in BALF and were collected by centrifugation. After centrifugation, the supernatant was collected to measure total protein content using the BCA assay (Pierce), while the cell pellet was lysed for immunoblotting or RNA isolation."}, "[6]": {"biological_target": "T1, human LOXL2 (Homo sapiens, UniProt Q9Y4K0)", "T1 sequence (Q9Y4K0 26-774)": "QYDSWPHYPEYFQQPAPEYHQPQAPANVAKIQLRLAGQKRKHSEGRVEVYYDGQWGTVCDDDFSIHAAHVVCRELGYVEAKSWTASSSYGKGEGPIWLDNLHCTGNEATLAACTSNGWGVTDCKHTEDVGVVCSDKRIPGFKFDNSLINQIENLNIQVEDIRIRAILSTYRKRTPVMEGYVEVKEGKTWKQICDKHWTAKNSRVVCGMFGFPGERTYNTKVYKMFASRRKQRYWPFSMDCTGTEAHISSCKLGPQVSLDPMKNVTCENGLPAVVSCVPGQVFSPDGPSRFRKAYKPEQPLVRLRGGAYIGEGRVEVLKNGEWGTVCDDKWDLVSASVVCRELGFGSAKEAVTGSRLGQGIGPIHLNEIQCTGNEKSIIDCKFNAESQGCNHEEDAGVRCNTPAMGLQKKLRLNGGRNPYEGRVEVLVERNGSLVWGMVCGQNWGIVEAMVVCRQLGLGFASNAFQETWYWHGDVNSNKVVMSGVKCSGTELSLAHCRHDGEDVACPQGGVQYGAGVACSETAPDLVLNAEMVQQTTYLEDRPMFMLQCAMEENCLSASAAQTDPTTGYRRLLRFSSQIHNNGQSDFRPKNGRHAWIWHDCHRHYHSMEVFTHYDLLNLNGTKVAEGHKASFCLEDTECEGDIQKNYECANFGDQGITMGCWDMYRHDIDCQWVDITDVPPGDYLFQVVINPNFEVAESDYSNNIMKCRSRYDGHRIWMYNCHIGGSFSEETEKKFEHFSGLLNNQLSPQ", "test": "LOX activity assay (H2O2 release, fluorimetric)", "format": "biochemical", "settings": "1 h incubation, read-out: IC50 of LOXL2 enzymatic activity toward a model substrate", "procedure": "LOX activity assay LOX activity of recombinant human LOXL2 or conditioned medium collected from cells expressing LOXL2 was measured using a Fluorimetric Lysyl Oxidase Activity Assay Kit (Abeam, Cambridge, Mass.) following a protocol provided by the manufacturer. Briefly, 50 μl of sample was mixed with an equal volume of assay reaction mixture containing LOX substrate, horseradish peroxidase (HRP) and HRP substrate in the presence and absence of testing inhibitors and D-penicillamine (DPA), a LOX inhibitor. The mixture was incubated for 30 min at 37° C. in darkness. The fluorescence increase was then measured with a fluorescence plate reader (BMG Lab Tech FLUOstar) at Ex/Em=540/590 nm. Sample buffer or medium alone without LOXL2 was used for determination of the background fluorescence."}, "[7]": {"biological_target": "T1, human LOXL2", "test": "Collagen crosslinking induced by recombinant LOXL2 in lung fibroblasts (Sircol assay)", "format": "cell-based", "settings": "primary human lung fibroblasts, 7 days", "procedure": "Preparation of insoluble cross-linked collagen. Fibroblasts were cultured on 10 cm dish until confluent. The medium was then changed to Dulbecco's modified Eagle's medium (DMEM) containing 5% FBS, 100 μM L-ascorbic acid with 500 kDa Dextran Sulfate at 100 μg/ml, and 50 ng/ml recombinant human LOXL2 (rhLOXL2) for 7 days^21,22. The cell layer was extracted with 0.5 M acetic acid and 0.1 mg/ml pepsin overnight at 4° C. The leftover insoluble fraction was further extracted and the insoluble cross-linked collagen measured using Sircol Insoluble Collagen Assay kit according to manufacture's instruction."}, "[8]": {"biological_target": "T1, human LOXL2", "test": "LOXL2-induced stabilization of snail 1 protein in NMuMG cells", "format": "cell-based", "parameters": "Flag (C); expressed in transfected cells; host or cells: NMuMG cells", "settings": "0.5 μM, 24 h", "procedure": "as §1"}, "[9]": {"test_system": "TGFβ1 signaling (p-smad3, snail 1)", "test": "TGFβ1 signaling in NMuMG cells expressing wild-type or mutant LOXL2", "format": "cell-based", "settings": "1 μM", "procedure": "as §1\nSite-directed mutagenesis of LOXL2. Site-directed mutagenesis was performed to generate K614N, K731R, and K759R point mutations using Phusion Site-Directed Mutagenesis Kit (Thermo Scientific, Waltham, Mass.) according to manufacturer's instructions. A pcDNA3-hLOXL2-flag plasmid containing the cDNA fragment of wild-type human LOXL2 fused with a flag tag at the C-terminus, was used as the template DNA^18. Mutations were confirmed by DNA sequencing. The primers and their complementary strands used are: K614N forward 5′-[…]-3′ (SEQ ID NO:2), K614N reverse 5′-[…]-3′(SEQ ID NO:3); K731R forward 5′-[…]-3′(SEQ ID NO:4), K731R reverse 5′-[…]-3′(SEQ ID NO:5); K759R forward 5′-[…]-3′(SEQ ID NO:6), and K759R reverse 5′-[…]-3′(SEQ ID NO:7)."}},
  "data": [
    {"smiles": "O=C(O[C@@H]1O[C@@H]2COC(=O)c3cc(O)c(O)c(O)c3-c3c(cc(O)c(O)c3O)C(=O)O[C@H]([C@H]1O)[C@@H]2O)c1cc(O)c(O)c(O)c1", "note": "[corilagin, Corilagin]", "values": [
      {"measurement": "corilagin concentration in conditioned medium", "setting": "[1]", "result": "decreased dramatically"},
      {"measurement": "corilagin concentration in conditioned medium", "setting": "[2]", "result": "not"},
      {"measurement": "concentration at 2 h", "setting": "[3]", "result": 80, "unit": "nM"},
      {"measurement": "TGFβ1-induced p-smads after longer pre-incubation", "setting": "[4]; pre-incubation 3 h or 6 h", "result": "completely suppressed"},
      {"measurement": "effects on p-smad3 generation after knockdown of LOXL2", "setting": "[4]; A549 cells and primary lung fibroblasts, 6 h", "result": "completely blocked"},
      {"measurement": "immune cell numbers or markers of injury", "setting": "[5]", "result": "no effect"},
      {"measurement": "IC50", "setting": "[6]", "result": 50, "unit": "nM"},
      {"measurement": "IC50", "setting": "[7]", "result": 10, "unit": "nM"},
      {"measurement": "LOXL2-induced stabilization of snail 1 protein", "setting": "[8]", "result": "blocked"},
      {"measurement": "inhibition of TGFβ1 signaling in cells expressing K731R LOXL2", "setting": "[9]", "result": "completely resistant"}
    ]}
  ]
}
